Laboratory results reported in patent US9802927B2, “Oxadiazine compounds and methods of use thereof” (Denali Therapeutics, Inc., priority 2015, dated 2017).

system: Aβ42; test: In vitro cell screening assay in H4 cells expressing human APP751: Aβ42 by sandwich ELISA; type: cell-based; settings: compounds 0.003-10 μM, incubated overnight (16-18 h), sandwich ELISA of supernatant
Procedure, shortened: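 H4 neuroglioma cells stably expressing wild-type human APP751, switched to Pro293 medium and treated with compounds (0.003-10 μM, 0.33% DMSO) for 16-18 h at 37 °C. Supernatant Aβ42 quantified by sandwich ELISA (C-terminal capture, 4G8-HRP detection, A450); EC50 by sigmoidal fit normalized to DMSO and DAPT controls.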

Row | SMILES | EC50 [nM]
1 | COc1nc(C2=NOCC(c3cc4c(Cl)cccc4o3)N2)ccc1-n1cnc(C)c1 (single isomer, unassigned; (-)) [Example 96A, (−)-5-(4-chlorobenzofuran-2-yl)-3-(6-methoxy-5-(4-methyl-1H-imidazol-1-yl)pyridin-2-yl)-5,6-dihydro-4H-1,2,4-oxadiazine] | 1010
2 | COc1nc(C2=NOCC(c3cc4c(F)cccc4o3)N2)ccc1-n1cnc(C)c1 (single isomer, unassigned; (-)) [Example 99B, (−)-5-(4-fluorobenzofuran-2-yl)-3-(6-methoxy-5-(4-methyl-1H-imidazol-1-yl)pyridin-2-yl)-5,6-dihydro-4H-1,2,4-oxadiazine] | 25.7
3 | COc1nc(C2=NOCC(c3oc4ccc(F)cc4c3C)N2)ccc1-n1cnc(C)c1 (single isomer, unassigned; (-)) [Example 101A, (−)-5-(5-fluoro-3-methylbenzofuran-2-yl)-3-(6-methoxy-5-(4-methyl-1H-imidazol-1-yl)pyridin-2-yl)-5,6-dihydro-4H-1,2,4-oxadiazine] | 1570
4 | COc1nc(C2=NOCC(c3cn(C)c4cc(F)c(C(F)(F)F)cc34)N2)ccc1-n1cnc(C)c1 (single isomer, unassigned; (-)) [Example 104A, (−)-5-(6-fluoro-1-methyl-5-(trifluoromethyl)-1H-indol-3-yl)-3-(6-methoxy-5-(4-methyl-1H-imidazol-1-yl)pyridin-2-yl)-5,6-dihydro-4H-1,2,4-oxadiazine] | 167
5 | COc1nc(C2=NOCC(c3ccc(Cl)c(F)c3)N2)ccc1-n1cnc(C)c1 (single isomer, unassigned; (-)) [Example 106A, (−)-5-(4-chloro-3-fluorophenyl)-3-(6-methoxy-5-(4-methyl-1H-imidazol-1-yl)pyridin-2-yl)-5,6-dihydro-4H-1,2,4-oxadiazine] | > 3000
6 | COc1nc(C2=NOCC(c3ccc(F)c(Cl)c3)N2)ccc1-n1cnc(C)c1 (single isomer, unassigned; (-)) [Example 108A, (−)-5-(3-chloro-4-fluorophenyl)-3-(6-methoxy-5-(4-methyl-1H-imidazol-1-yl)pyridin-2-yl)-5,6-dihydro-4H-1,2,4-oxadiazine] | 2630
7 | COc1nc(C2=NOCC(c3cc(F)cc(Cl)c3)N2)ccc1-n1cnc(C)c1 (single isomer, unassigned; (-)) [Example 111A, (−)-5-(3-chloro-5-fluorophenyl)-3-(6-methoxy-5-(4-methyl-1H-imidazol-1-yl)pyridin-2-yl)-5,6-dihydro-4H-1,2,4-oxadiazine] | > 3000
8 | COc1nc(C2=NOCC(c3cccc(C(F)(F)F)c3)N2)ccc1-n1cnc(C)c1 (single isomer, unassigned; (-)) [Example 113A, (−)-3-(6-methoxy-5-(4-methyl-1H-imidazol-1-yl)pyridin-2-yl)-5-(3-(trifluoromethyl)phenyl)-5,6-dihydro-4H-1,2,4-oxadiazine] | > 3000
9 | COc1nc(C2=NOCC(c3ccc(C4CC4)cc3)N2)ccc1-n1cnc(C)c1 (single isomer, unassigned; (-)) [Example 116A, (−)-5-(4-cyclopropylphenyl)-3-(6-methoxy-5-(4-methyl-1H-imidazol-1-yl)pyridin-2-yl)-5,6-dihydro-4H-1,2,4-oxadiazine] | 767
10 | COc1nc(C2=NOCC(c3cc(Cl)cc(Cl)c3)N2)ccc1-n1cnc(C)c1 (single isomer, unassigned; (-)) [Example 118A, (−)-5-(3,5-dichlorophenyl)-3-(6-methoxy-5-(4-methyl-1H-imidazol-1-yl)pyridin-2-yl)-5,6-dihydro-4H-1,2,4-oxadiazine] | 1510
11 | COc1nc(C2=NOCC(c3nn(C)c4ccccc34)N2)ccc1-n1cnc(C)c1 (single isomer, unassigned; (-)) [Example 124A, (−)-3-(6-methoxy-5-(4-methyl-1H-imidazol-1-yl)pyridin-2-yl)-5-(1-methyl-1H-indazol-3-yl)-5,6-dihydro-4H-1,2,4-oxadiazine] | 1060
